Source: patent US20230139171A1 (SITA Information Networking Computing UK Limited, priority 2019, published 2023)

Columns and labels:
Format in all cases: cell-based
human TLR7 = target: T1, human TLR7 (Homo sapiens, UniProt Q9NYK1); experiment: TLR7 inhibition reporter assay (HEK-Blue cells, SEAP reporter, gardiquimod stimulation); conditions: HEK-Blue cells overexpressing human TLR7, SEAP reporter, gardiquimod 7.5 μM; read-out: TLR7 IC50
T1 construct: host or cells: HEK-Blue cells
T1 sequence (Q9NYK1 27-1049): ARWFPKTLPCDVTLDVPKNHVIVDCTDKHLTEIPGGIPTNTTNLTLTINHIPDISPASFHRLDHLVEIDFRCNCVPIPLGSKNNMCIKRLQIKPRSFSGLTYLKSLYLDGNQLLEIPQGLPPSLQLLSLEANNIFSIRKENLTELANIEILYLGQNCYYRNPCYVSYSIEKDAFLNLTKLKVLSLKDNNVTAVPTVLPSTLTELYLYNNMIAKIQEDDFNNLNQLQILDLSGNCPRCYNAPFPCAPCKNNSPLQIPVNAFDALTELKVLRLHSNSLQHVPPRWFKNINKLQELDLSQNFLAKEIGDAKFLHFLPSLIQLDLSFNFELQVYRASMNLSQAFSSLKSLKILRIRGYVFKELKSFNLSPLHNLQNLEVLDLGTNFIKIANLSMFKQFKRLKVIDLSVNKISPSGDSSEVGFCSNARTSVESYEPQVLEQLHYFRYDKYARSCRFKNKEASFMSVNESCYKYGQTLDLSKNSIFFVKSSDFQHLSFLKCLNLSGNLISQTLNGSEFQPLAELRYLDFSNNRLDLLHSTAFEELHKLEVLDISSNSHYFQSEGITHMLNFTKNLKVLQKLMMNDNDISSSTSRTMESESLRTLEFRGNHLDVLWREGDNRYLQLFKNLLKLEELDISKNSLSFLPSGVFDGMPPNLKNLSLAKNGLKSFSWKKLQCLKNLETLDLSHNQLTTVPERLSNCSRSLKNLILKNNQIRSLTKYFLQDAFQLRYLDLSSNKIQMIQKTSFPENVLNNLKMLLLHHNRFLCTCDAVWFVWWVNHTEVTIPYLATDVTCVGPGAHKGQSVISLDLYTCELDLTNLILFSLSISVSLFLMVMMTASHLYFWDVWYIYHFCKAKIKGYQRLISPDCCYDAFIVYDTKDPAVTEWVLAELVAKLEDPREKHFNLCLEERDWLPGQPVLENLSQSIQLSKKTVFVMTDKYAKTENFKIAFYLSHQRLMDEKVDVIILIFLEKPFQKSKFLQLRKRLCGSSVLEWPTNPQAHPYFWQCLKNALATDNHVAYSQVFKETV
How it was run: (§1)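 Compound treatment: 30 min, RT, 0.05 nM–50 μM final. Agonist: TLR7 gardiquimod 7.5 μM; TLR8 R848 15.9 μM; TLR9 ODN2006 5 nM. Incubation 22 h, 37 °C, 5% CO2. Readout SEAP, HEK-Blue Detection.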

human TLR9 = target: T2, human TLR9 (Homo sapiens, UniProt Q9NR96); experiment: TLR9 inhibition reporter assay (HEK-Blue cells, SEAP reporter, ODN2006 stimulation); conditions: HEK-Blue cells overexpressing human TLR9, SEAP reporter, ODN2006 5 nM
T2 construct: host or cells: HEK-Blue cells
T2 sequence (Q9NR96 26-1032): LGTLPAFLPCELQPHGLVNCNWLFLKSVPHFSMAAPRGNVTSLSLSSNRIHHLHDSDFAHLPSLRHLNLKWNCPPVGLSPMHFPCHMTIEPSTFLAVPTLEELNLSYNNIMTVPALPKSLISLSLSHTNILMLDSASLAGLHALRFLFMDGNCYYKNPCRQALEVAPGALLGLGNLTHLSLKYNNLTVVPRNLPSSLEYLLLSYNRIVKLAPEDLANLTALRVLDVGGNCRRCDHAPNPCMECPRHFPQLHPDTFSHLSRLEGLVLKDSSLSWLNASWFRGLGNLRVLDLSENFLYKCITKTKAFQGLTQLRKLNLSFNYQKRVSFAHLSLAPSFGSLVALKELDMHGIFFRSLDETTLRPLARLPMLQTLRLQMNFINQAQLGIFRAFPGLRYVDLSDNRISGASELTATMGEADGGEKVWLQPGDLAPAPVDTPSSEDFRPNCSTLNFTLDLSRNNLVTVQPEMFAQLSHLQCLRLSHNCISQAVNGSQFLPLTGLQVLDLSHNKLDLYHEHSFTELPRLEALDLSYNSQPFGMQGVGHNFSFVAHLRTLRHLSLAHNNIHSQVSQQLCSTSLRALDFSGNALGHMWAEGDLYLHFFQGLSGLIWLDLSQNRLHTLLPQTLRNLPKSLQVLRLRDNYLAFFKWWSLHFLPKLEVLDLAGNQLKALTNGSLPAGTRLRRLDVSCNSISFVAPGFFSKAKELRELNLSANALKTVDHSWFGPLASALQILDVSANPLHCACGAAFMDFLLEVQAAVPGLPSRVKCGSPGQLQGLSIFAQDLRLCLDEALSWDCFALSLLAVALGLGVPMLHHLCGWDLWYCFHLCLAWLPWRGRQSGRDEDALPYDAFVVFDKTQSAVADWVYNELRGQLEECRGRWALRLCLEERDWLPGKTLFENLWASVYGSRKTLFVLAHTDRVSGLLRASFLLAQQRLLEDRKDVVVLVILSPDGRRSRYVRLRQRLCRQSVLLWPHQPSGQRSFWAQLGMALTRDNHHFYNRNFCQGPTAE
How it was run: as §1

human TLR8 = target: T3, human TLR8 (Homo sapiens, UniProt Q9NR97); experiment: TLR8 inhibition reporter assay (HEK-Blue cells, SEAP reporter, R848 stimulation); conditions: HEK-Blue cells overexpressing human TLR8, SEAP reporter, R848 15.9 μM; read-out: TLR8 IC50
T3 construct: host or cells: HEK-Blue cells
T3 sequence (Q9NR97 27-1041): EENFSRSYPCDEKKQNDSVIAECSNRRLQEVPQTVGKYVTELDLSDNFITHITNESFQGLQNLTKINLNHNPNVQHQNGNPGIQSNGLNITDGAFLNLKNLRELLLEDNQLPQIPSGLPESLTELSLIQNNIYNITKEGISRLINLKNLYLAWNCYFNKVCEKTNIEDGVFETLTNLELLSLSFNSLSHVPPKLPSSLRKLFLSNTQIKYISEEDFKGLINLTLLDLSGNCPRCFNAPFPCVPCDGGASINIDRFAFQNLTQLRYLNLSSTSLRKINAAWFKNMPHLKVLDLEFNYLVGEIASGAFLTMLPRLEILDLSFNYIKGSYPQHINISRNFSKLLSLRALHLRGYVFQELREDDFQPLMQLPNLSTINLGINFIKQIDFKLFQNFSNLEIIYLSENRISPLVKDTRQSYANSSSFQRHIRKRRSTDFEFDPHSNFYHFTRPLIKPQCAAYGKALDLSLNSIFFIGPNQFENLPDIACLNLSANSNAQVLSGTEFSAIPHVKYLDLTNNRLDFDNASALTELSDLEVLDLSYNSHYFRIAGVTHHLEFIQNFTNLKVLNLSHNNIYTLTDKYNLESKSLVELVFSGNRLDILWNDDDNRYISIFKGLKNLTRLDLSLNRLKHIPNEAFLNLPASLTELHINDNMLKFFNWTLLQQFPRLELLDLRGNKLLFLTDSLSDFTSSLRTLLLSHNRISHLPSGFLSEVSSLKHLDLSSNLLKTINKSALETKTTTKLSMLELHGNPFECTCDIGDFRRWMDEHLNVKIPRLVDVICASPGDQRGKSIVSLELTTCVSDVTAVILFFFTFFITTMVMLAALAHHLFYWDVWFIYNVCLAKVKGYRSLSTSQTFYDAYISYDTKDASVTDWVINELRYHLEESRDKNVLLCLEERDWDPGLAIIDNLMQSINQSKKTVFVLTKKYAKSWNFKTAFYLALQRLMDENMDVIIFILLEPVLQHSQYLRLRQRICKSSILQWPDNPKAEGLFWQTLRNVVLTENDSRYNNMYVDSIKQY
How it was run: as §1

| SMILES | IC50 (human TLR7) | IC50 (human TLR9) | IC50 (human TLR8) |
| --- | --- | --- | --- |
| Cc1c(-c2[nH]c3sc(C(=O)N4CCS(=O)(=O)CC4)nc3c2C(C)C)cn2ncnc2c1C [Example 373, (5-(7,8-dimethyl-[1,2,4]triazolo[1,5-a]pyridin-6-yl)-6-isopropyl-4H-pyrrolo[3,2-d]thiazol-2-yl)(1,1-dioxidothiomorpholino)methanone] | 81.9 nM | 42100 nM | 34.5 nM |
| Cc1c(-c2[nH]c3sc(C(=O)NCC(C)(C)N4CCOCC4)nc3c2C(C)C)cn2ncnc2c1C [Example 374, 5-(7,8-dimethyl-[1,2,4]triazolo[1,5-a]pyridin-6-yl)-6-isopropyl-N-(2-methyl-2-morpholinopropyl)-4H-pyrrolo[3,2-d]thiazole-2-carboxamide] | 11.7 nM | 41500 nM | 9.33 nM |
| CC(=O)N1CCN(C(=O)c2nc3c(C(C)C)c(-c4cn5ncnc5c(C)c4C)[nH]c3s2)CC1 [Example 375, 1-(4-(5-(7,8-dimethyl-[1,2,4]triazolo[1,5-a]pyridin-6-yl)-6-isopropyl-4H-pyrrolo[3,2-d]thiazole-2-carbonyl)piperazin-1-yl)ethan-1-one] | 19.9 nM | 35600 nM | 8.4 nM |
| Cc1c(-c2[nH]c3sc(C(=O)N4CCC(N(C)C)CC4)nc3c2C(C)C)cn2ncnc2c1C [Example 376, (5-(7,8-dimethyl-[1,2,4]triazolo[1,5-a]pyridin-6-yl)-6-isopropyl-4H-pyrrolo[3,2-d]thiazol-2-yl)(4-(dimethylamino)piperidin-1-yl)methanone] | 4.54 nM | 6300 nM | 2.8 nM |
| Cc1c(-c2[nH]c3sc(C(=O)N4CC(F)C4)nc3c2C(C)C)cn2ncnc2c1C [Example 379, (5-(7,8-dimethyl-[1,2,4]triazolo[1,5-a]pyridin-6-yl)-6-isopropyl-4H-pyrrolo[3,2-d]thiazol-2-yl) (3-fluoroazetidin-1-yl)methanone] | 55.7 nM | 28000 nM | 22.9 nM |
| Cc1c(-c2[nH]c3sc(C(=O)N4CCN(C(C)C)CC4)nc3c2C(C)C)cn2ncnc2c1C [Example 380, (5-(7,8-dimethyl-[1,2,4]triazolo[1,5-a]pyridin-6-yl)-6-isopropyl-4H-pyrrolo[3,2-d]thiazol-2-yl)(4-isopropylpiperazin-1-yl)methanone] | 11.5 nM | 6520 nM | 5.07 nM |
| Cc1c(-c2[nH]c3sc(C(=O)NCCC4CCN(C)CC4)nc3c2C(C)C)cn2ncnc2c1C [Example 381, 5-(7,8-dimethyl-[1,2,4]triazolo[1,5-a]pyridin-6-yl)-6-isopropyl-N-(2-(1-methylpiperidin-4-yl)ethyl)-4H-pyrrolo[3,2-d]thiazole-2-carboxamide] | 11.1 nM | 5880 nM | 9.06 nM |
| Cc1c(-c2[nH]c3sc(C(=O)N(C)CCN(C)C)nc3c2C(C)C)cn2ncnc2c1C [Example 382, 5-(7,8-dimethyl-[1,2,4]triazolo[1,5-a]pyridin-6-yl)-N-(2-(dimethylamino)ethyl)-6-isopropyl-N-methyl-4H-pyrrolo[3,2-d]thiazole-2-carboxamide] | 2.32 nM | 9860 nM | 2.33 nM |
| Cc1c(-c2[nH]c3sc(C(=O)N4CC(N(C)C)C4)nc3c2C(C)C)cn2ncnc2c1C [Example 383, (5-(7,8-dimethyl-[1,2,4]triazolo[1,5-a]pyridin-6-yl)-6-isopropyl-4H-pyrrolo[3,2-d]thiazol-2-yl) (3-(dimethylamino)azetidin-1-yl)methanone] | 17.5 nM | 47000 nM | 3.51 nM |
| Cc1c(-c2[nH]c3sc(C(=O)NCC4CNCCO4)nc3c2C(C)C)cn2ncnc2c1C (stereo not drawn) [Example 386, 5-(7,8-dimethyl-[1,2,4]triazolo[1,5-a]pyridin-6-yl)-6-isopropyl-N-(morpholin-2-ylmethyl)-4H-pyrrolo[3,2-d]thiazole-2-carboxamide] | 10.3 nM | 9560 nM | 3.56 nM |
| COc1cc(-c2[nH]c3sc(C(=O)NCCN4CCCC4)nc3c2C(C)C)cn2ncnc12 [Example 387, 6-isopropyl-5-(8-methoxy-[1,2,4]triazolo[1,5-a]pyridin-6-yl)-N-(2-(pyrrolidin-1-yl)ethyl)-4H-pyrrolo[3,2-d]thiazole-2-carboxamide] | 25.2 nM | 11500 nM | 43.9 nM |
| COc1cc(-c2[nH]c3sc(C(=O)NCCN(C)C)nc3c2C(C)C)cn2ncnc12 [Example 388, N-(2-(dimethylamino)ethyl)-6-isopropyl-5-(8-methoxy-[1,2,4]triazolo[1,5-a]pyridin-6-yl)-4H-pyrrolo[3,2-d]thiazole-2-carboxamide] | 22.4 nM | 16100 nM | 37.4 nM |
| COc1cc(-c2[nH]c3sc(C(=O)NCC(F)F)nc3c2C(C)C)cn2ncnc12 [Example 389, N-(2,2-difluoroethyl)-6-isopropyl-5-(8-methoxy-[1,2,4]triazolo[1,5-a]pyridin-6-yl)-4H-pyrrolo[3,2-d]thiazole-2-carboxamide] | 50.3 nM | 37100 nM | 168 nM |
